Measured values as given in patent publication US20200239473A1, “NEW DERIVATIVES OF LICOFELONE” (priority 2015, published 2020).

Assay: Metabolic stability in minipig intestinal fluid, quantification of licofelone by HPLC/UV
Format: in vitro ADME, Gottingen SPF minipig
Settings: diluted minipig intestinal fluid; result in words
Protocol: Metabolic Stability of NSAID in Minipig Intestinal Fluid—Quantification of Licofelone
Intestinal tissue/fluid and enterocyte samples were taken from a 10 month old, female Gottingen SPF minipig. The body weight was 21 kg. The minipig was fasted for approximately 28 hours before sampling of intestinal fluid/tissues and enterocytes. On the day of sampling, the minipig was weighed and anaesthetised. The animal was killed by exsanguination before the sampling of intestinal fluid. An intestinal segment was ligated at both ends before removal. The isolated tissue was placed in isotonic saline and opened by a longitudinal cut for sampling of intestinal fluid.
The intestinal tissue from each segment was transferred into a Centrifuge Tube, immersed in 10 ml 50mM phosphate buffer, pH 6.8 and frozen at −70° C.
b) Incubation Experiments with Minipig Intestinal Fluid (without FaSSIF) […]
A set of six reference solutions (solvent: 1 vol IF and 4 vol 2% bovine serum albumin in FaSSIF pH 6.5) with licofelone concentrations between 38.0 and 0.19 μg/ml and the solvent without licofelone were analysed in duplicate. The obtained concentration/peak area data pairs were subjected to linear regression analysis and the resulting calibration curve (r^2=0.9999) was used for quantification of licofelone in incubation experiments.

Structure (SMILES)	release of licofelone compared with Examples bearing a hydroxy group or an MMF residue as R
CC1(C)Cc2c(-c3ccccc3)c(-c3ccc(Cl)cc3)c(CC(=O)OCCOCCOCCOCCOC(=O)Cc3c(-c4ccc(Cl)cc4)c(-c4ccccc4)c4n3CC(C)(C)C4)n2C1 [Reference Example 4b, [2-(4-Chloro-phenyl)-6,6-dimethyl-1-phenyl-6,7-dihydro-5H-pyrrolizin-3-yl]acetic acid 2-{2-[2-(2-{2-[2-(4-chloro-phenyl)-6,6-dimethyl-1-phenyl-6,7-dihydro-5H-pyrrolizin-3-yl]-acetoxy}-ethoxy)-ethoxy]-ethoxy}-ethyl ester]	significantly lower
CC1(C)Cc2c(-c3ccccc3)c(-c3ccc(Cl)cc3)c(CC(=O)OCCOC(=O)Cc3c(-c4ccc(Cl)cc4)c(-c4ccccc4)c4n3CC(C)(C)C4)n2C1 [Reference Example 5b, 2-[2-[2-(4-chlorophenyl)-6,6-di-methyl-1-phenyl-5,7-dihydropyrrolizin-3-yl]acetyl]oxyethyl-2-[2-(4-chloro-phenyl)-6,6-dimethyl-1-phenyl-5,7-dihydropyrrolizin-3-yl]acetate]	significantly lower
